This passage reports inhibition results from ChEMBL document CHEMBL5442219.

Molecules are shown by their SMILES.

Conditions in all cases: Compound concentration 10 µM
In assay [1] the target is Mu-type opioid receptor (Homo sapiens) (UniProt P35372).
Assay [2] addresses Sigma non-opioid intracellular receptor 1 (Homo sapiens) (UniProt Q99720).
In assay [3] the target is Histamine H2 receptor (Homo sapiens) (UniProt P25021).
Assay [4] addresses Histamine H1 receptor (Homo sapiens) (UniProt P35367).
Assay [5] deals with 5-hydroxytryptamine receptor 5A (Homo sapiens) (UniProt P47898).
Assay [6] addresses T1, Alpha-2C adrenergic receptor (Homo sapiens) (UniProt P18825).
T1 sequence (whole entry): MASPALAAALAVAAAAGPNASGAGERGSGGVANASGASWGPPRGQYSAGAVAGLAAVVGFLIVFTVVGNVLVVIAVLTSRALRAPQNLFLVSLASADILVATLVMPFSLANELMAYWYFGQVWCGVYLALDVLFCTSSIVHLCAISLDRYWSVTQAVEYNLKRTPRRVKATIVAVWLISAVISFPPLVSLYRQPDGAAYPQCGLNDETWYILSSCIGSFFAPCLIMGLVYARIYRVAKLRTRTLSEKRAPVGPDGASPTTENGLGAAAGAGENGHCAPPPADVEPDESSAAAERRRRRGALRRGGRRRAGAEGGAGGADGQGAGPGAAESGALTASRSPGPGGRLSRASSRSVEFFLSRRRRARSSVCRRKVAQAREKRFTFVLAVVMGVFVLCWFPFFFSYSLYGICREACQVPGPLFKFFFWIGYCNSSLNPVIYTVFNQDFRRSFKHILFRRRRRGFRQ

Assay [7] deals with Sodium-dependent dopamine transporter (Homo sapiens) (UniProt Q01959).
In assay [8] the target is 5-hydroxytryptamine receptor 2B (Homo sapiens) (UniProt P41595).
The target in assay [9] is T2, Muscarinic acetylcholine receptor M1 (Homo sapiens) (UniProt P11229).
T2 sequence (whole entry): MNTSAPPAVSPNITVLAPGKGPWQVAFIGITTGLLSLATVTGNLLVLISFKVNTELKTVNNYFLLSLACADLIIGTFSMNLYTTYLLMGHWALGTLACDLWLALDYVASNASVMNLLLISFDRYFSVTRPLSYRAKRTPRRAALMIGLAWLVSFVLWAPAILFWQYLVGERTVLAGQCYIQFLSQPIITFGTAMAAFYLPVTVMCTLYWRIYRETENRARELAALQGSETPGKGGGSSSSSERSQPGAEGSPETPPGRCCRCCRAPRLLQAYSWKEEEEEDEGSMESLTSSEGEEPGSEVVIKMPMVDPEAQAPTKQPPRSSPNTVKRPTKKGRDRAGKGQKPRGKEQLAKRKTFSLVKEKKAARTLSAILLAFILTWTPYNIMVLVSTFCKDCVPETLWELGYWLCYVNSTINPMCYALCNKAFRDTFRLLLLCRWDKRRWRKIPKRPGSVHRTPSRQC

The target in assay [10] is T3, Alpha-2B adrenergic receptor (Homo sapiens) (UniProt P18089).
T3 sequence (whole entry): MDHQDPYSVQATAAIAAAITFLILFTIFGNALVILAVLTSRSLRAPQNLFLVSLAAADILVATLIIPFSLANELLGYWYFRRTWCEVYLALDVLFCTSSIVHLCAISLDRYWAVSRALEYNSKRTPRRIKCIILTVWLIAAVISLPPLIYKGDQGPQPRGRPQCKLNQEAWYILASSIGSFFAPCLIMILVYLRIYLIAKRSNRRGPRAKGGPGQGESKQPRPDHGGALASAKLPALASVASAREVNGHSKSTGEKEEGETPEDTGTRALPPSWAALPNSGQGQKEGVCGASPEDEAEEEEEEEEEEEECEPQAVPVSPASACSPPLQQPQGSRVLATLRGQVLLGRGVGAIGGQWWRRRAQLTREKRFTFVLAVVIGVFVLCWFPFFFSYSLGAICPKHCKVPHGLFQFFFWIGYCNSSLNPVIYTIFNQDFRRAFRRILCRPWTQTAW

Assay [11] deals with D(1A) dopamine receptor (Homo sapiens) (UniProt P21728).
Assay [12] deals with Translocator protein (Homo sapiens) (UniProt P30536).
In assay [13] the target is Muscarinic acetylcholine receptor M3 (Homo sapiens) (UniProt P20309).
The target in assay [14] is Histamine H4 receptor (Homo sapiens) (UniProt Q9H3N8).
The target in assay [15] is Delta-type opioid receptor (Homo sapiens) (UniProt P41143).
Assay [16] deals with 5-hydroxytryptamine receptor 1D (Homo sapiens) (UniProt P28221).

By inhibition is commonly meant the drop in the measured response relative to a control, in per cent.

Sequence of Histamine H1 receptor (Homo sapiens) (P35367 whole entry): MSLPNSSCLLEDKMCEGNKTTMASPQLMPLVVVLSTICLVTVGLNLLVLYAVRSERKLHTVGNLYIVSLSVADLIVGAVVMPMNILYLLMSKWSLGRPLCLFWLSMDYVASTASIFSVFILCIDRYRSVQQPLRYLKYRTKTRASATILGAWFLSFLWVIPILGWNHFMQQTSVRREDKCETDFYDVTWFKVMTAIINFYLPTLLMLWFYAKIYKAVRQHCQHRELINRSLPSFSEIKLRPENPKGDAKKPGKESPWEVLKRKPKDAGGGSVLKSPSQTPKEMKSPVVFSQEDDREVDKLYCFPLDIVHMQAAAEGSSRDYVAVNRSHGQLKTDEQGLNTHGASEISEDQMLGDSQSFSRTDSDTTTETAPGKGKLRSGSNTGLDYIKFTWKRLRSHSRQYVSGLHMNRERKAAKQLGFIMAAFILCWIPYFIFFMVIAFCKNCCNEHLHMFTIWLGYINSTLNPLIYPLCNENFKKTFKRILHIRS
Sequence of Delta-type opioid receptor (Homo sapiens) (P41143 whole entry): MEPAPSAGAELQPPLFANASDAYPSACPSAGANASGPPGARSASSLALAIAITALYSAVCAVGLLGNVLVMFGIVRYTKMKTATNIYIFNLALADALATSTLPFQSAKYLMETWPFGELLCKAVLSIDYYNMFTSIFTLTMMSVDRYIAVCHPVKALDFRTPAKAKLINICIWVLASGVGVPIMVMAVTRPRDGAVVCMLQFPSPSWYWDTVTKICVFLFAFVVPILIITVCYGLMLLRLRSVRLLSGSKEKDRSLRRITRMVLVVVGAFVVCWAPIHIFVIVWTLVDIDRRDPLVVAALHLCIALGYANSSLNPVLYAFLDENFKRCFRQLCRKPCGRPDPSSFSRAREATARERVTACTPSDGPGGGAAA
Sequence of Histamine H2 receptor (Homo sapiens) (P25021 whole entry): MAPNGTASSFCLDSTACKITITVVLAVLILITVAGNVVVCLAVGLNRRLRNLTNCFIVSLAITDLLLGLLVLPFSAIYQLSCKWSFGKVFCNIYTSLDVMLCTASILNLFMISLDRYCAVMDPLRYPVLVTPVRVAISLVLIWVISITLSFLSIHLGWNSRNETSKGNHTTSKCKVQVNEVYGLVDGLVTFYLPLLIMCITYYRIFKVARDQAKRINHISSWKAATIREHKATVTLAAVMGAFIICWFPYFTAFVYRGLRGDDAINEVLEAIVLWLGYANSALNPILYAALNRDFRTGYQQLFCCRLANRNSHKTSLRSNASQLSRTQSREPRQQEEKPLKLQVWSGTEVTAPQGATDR
Sequence of Sigma non-opioid intracellular receptor 1 (Homo sapiens) (Q99720 whole entry): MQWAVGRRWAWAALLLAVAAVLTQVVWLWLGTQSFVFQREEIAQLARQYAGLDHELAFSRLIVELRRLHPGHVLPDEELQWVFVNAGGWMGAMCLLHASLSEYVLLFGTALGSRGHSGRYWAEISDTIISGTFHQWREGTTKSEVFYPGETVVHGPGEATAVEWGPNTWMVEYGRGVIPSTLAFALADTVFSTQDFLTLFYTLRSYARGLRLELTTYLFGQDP
Sequence of Histamine H4 receptor (Homo sapiens) (Q9H3N8 whole entry): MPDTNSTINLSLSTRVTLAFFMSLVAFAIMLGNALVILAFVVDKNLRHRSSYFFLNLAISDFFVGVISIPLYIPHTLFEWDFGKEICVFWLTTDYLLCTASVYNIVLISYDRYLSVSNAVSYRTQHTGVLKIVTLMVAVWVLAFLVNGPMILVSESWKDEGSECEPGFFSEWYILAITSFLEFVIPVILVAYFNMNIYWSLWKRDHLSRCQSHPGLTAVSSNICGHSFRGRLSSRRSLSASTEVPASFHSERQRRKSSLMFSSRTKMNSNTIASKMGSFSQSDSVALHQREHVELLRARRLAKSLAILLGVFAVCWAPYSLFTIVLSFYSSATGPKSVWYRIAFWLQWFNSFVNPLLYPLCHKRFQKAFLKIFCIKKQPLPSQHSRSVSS
Sequence of 5-hydroxytryptamine receptor 2B (Homo sapiens) (P41595 whole entry): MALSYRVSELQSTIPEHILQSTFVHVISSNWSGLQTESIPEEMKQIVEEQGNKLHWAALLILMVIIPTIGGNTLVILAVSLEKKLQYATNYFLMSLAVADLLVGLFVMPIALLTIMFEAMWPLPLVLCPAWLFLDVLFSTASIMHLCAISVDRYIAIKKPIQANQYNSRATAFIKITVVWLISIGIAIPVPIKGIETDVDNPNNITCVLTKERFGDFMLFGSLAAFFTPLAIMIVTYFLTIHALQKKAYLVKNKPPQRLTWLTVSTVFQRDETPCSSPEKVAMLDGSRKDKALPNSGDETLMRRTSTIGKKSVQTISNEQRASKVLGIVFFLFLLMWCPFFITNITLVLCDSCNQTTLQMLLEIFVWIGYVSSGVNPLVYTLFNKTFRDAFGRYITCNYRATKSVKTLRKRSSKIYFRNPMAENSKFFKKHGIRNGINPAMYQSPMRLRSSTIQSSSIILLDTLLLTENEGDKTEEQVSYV
Sequence of Mu-type opioid receptor (Homo sapiens) (P35372 whole entry): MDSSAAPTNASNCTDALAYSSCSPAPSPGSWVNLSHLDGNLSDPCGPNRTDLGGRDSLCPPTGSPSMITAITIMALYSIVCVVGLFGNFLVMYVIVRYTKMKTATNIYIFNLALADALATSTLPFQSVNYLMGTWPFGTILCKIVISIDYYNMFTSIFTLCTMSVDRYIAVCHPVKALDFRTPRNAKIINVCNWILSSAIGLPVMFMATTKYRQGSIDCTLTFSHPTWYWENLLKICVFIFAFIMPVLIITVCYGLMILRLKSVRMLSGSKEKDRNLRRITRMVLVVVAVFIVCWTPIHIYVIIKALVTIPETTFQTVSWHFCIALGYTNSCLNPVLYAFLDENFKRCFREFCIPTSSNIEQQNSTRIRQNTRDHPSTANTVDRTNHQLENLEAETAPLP
Sequence of 5-hydroxytryptamine receptor 5A (Homo sapiens) (P47898 whole entry): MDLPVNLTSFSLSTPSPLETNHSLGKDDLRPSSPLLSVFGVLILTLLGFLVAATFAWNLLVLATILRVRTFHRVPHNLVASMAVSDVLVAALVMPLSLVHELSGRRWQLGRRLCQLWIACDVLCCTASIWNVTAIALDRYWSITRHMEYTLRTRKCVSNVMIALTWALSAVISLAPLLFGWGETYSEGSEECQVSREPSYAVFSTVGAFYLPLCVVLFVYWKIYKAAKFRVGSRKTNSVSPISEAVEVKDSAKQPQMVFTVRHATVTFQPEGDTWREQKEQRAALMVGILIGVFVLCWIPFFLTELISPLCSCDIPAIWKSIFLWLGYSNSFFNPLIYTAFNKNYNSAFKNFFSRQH
Sequence of Muscarinic acetylcholine receptor M3 (Homo sapiens) (P20309 whole entry, looked up): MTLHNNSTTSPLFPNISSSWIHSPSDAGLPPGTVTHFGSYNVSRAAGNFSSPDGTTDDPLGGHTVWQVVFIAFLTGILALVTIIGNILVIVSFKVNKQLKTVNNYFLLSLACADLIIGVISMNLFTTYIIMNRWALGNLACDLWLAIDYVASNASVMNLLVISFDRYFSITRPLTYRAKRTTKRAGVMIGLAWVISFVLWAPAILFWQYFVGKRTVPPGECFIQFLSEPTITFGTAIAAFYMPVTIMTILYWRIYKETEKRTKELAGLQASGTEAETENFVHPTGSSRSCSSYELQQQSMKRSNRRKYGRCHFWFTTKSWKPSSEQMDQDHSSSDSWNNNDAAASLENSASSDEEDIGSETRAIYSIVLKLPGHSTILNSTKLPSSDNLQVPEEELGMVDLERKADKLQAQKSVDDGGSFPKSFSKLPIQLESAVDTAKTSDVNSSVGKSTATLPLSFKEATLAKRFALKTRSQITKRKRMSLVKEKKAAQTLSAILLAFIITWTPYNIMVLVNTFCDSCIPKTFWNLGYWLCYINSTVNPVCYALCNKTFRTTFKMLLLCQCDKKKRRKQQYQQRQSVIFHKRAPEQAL
Sequence of Sodium-dependent dopamine transporter (Homo sapiens) (Q01959 whole entry): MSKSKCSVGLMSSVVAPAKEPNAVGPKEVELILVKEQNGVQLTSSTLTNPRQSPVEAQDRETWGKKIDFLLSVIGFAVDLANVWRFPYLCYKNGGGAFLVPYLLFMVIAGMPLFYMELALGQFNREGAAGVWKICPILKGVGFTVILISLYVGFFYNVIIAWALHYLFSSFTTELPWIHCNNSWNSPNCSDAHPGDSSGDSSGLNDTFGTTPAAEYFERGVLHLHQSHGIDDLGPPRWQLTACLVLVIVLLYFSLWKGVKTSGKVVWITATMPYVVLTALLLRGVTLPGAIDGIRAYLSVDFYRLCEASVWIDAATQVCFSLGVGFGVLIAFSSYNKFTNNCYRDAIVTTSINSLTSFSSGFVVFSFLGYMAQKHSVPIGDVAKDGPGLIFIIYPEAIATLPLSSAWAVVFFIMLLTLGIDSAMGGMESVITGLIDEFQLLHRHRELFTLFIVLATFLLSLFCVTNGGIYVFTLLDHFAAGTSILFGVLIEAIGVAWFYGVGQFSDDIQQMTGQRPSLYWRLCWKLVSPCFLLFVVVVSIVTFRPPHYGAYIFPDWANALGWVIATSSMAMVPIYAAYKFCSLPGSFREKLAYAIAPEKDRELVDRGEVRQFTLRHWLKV
Sequence of D(1A) dopamine receptor (Homo sapiens) (P21728 whole entry): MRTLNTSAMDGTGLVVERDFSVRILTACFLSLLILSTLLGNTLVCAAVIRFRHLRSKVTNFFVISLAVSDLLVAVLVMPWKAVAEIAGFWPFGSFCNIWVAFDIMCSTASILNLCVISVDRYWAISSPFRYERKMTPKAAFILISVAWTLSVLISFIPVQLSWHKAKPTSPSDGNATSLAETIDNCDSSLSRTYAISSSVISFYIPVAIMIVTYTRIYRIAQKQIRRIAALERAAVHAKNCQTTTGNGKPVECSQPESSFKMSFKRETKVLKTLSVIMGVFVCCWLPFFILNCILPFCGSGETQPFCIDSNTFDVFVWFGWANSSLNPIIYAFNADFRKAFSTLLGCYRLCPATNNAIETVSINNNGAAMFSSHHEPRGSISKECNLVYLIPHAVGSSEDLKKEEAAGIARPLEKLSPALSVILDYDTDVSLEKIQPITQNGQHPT
Sequence of Translocator protein (Homo sapiens) (P30536 whole entry): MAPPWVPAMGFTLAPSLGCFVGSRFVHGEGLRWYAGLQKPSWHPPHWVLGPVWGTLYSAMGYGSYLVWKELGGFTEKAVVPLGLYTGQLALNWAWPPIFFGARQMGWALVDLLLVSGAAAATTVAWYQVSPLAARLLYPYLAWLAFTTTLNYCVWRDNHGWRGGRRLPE

Regarding `CCc1cc2c(c(CC)n1)CCC(=O)N2Cc1ccc(-c2ccccc2-c2nnn[nH]2)cc1`, the inhibition was 51.6% in assay [1]; 24.9% in assay [2]; 26.1% in assay [3]; 8.58% in [4]; -4.8% in [5]; 5.68% in [6]. In addition, the inhibition is 8.77% in assay [7]; 10.5% in [8]; 1.99% in assay [9]; 3.95% in assay [10]; -4.14% in [11]; 45.9% in assay [12].

For the compound `C[C@H](CO)Nc1nc(SCc2cccc(Cl)c2F)nc2[nH]c(=O)sc12`, the inhibition is 10.8% in [1]; 15.8% in assay [2]; 40% in assay [3]; 19% in assay [4]; 7.09% in assay [5]; 8.96% in assay [7]. Moreover, the inhibition in [8] was -6.11%; in assay [9] it was -2.82%; in assay [11] it was -6.29%.

For `CCc1cc(C(C)=O)c(O)cc1OCCCCCC(C)(C)c1nn[nH]n1`, the inhibition in assay [1] is 8.2%; in assay [2], 61.4%; in [3], 6.38%; in [4] it was 17.1%; in assay [5], 8.4%; in [6], 12%. In addition, the inhibition was 32.8% in assay [7]; 64.2% in assay [8]; 8.78% in [13]; 34.3% in assay [14]; 15.2% in [10]; 1.9% in assay [11]. Also, the inhibition in [12] is -1.68%.

On to `CC(C)NCC(O)c1ccc(N)c(C#N)c1` (configuration not stated), for which the inhibition is 22.7% in assay [2]; 5.77% in assay [3]; 34.1% in assay [4]; -3.24% in [6]; 29% in assay [7]; -2.53% in assay [9]. Also, the values for the inhibition in assay [13], in assay [14] and in assay [11] were -7.31%, 0.52% and -2.82%, respectively.

For the compound `CSc1ccc(C(=O)N[C@@H]2CCCC[C@@H]2NC(=O)CNC(=O)c2cc(C(F)(F)F)ccc2NC(=O)NC(C)C)cc1`, the inhibition in assay [1] was 28%; in [2], 22.2%; in assay [3], 28.4%; in assay [4], 70.6%; in assay [5] it was 5.1%; in assay [7] it was 28.2%. For the same compound, the inhibition in [8] was 27.9%; in [9], 28.4%; in assay [10], 10.8%; in assay [11], -8.17%; in [12], 46.9%; in assay [15] it was 4.07%.

Turning to `CCCCN(CC)c1nc(C)nc2c1c(C)cn2-c1c(C)cc(C)cc1C`, the inhibition was 20.1% in assay [1]; 28.8% in assay [2]; 20.9% in assay [3]; -0.49% in assay [16]; 12.4% in [4]; -1.9% in assay [6]. Further, the inhibition in assay [7] is 36%; in [8] it was 16.9%; in assay [14], 2.86%; in [10], 39.7%; in [11], 19.2%; in assay [12], 74.3%. For the same compound, the inhibition in [15] is 7.66%.

For the compound `COc1ccccc1CN[C@H]1C2CCN(CC2)[C@H]1C(c1ccccc1)c1ccccc1`, the inhibition is 9.53% in [1]; 48.5% in assay [2]; 8.86% in assay [3]; 40.4% in assay [4]; 19.7% in [5]; 1.59% in assay [6]. Further, the inhibition in assay [7] is 40%; in assay [8] it was 0.68%; in assay [13], 13.3%; in [14] it was 27.6%; in assay [10], 3.23%; in assay [12], 30.2%.

On to `C/C(=N\NC(=O)[C@@H]1C(=O)NC[C@H]1c1ccccc1)c1cccc(Br)c1`, for which the inhibition is 50.1% in assay [1]; 21.3% in assay [2]; 20.4% in assay [3]; 58.5% in assay [4]; 18.8% in assay [5]; -7.78% in [6]. Besides, the inhibition was 14.3% in assay [8]; -1.51% in [9]; -7.62% in [10]; -9.99% in assay [11]; 46.9% in assay [12].

Take `CC(C)C[C@H](NC(=O)N1CCCCCC1)C(=O)N[C@H](Cc1cn(C)c2ccccc12)C(=O)N[C@H](Cc1ccccn1)C(=O)O`: the inhibition was 16.7% in assay [1]; 4.12% in [2]; 18% in assay [3]; 5.31% in assay [4]; 0.48% in [6]; -1.54% in assay [7]. In addition, the results for the inhibition in assay [8], in [9] and in [12] were 16%, 0.87% and 25.5%, respectively.

`Cc1cc(C)cc(C(=O)N(C)[C@H](Cc2ccc(-c3ccccc3)cc2)C(=O)N[C@@H](Cc2c[nH]c3ccccc23)C(=O)O)c1`: the inhibition is -1.4% in assay [1]; -6.1% in assay [2]; 34.1% in assay [3]; 15.5% in assay [4]; 11.1% in [6]; 32.2% in [7]. Further, the inhibition was -6.62% in [8]; 12.5% in [9]; 0.07% in assay [13]; -4.33% in assay [14]; 7.27% in assay [10]; 28.8% in assay [12].

On to `CN(C(=O)Cc1ccc(Cl)c(Cl)c1)C(CN1CCCC1)c1cccc(OCC(=O)O)c1` (configuration not stated), for which the inhibition in [1] was 87.5%; in assay [2], 24.1%; in assay [3], 28.1%; in assay [4], 47.4%; in assay [5], 1.89%; in [6], 3.8%. Further, the inhibition in [7] was 26.4%; in assay [8], 14.7%; in assay [13] it was 9.38%; in [14], 13.7%; in assay [10], 5.65%; in assay [12], 21.5%. Also, the inhibition in [15] was 71.9%.

Take `COc1ccc(S(=O)(=O)c2cc(OC)ccc2S(=O)(=O)c2ccc([C@H](C)NS(C)(=O)=O)cc2)cc1`: the inhibition in assay [1] was 11.3%; in [2], 23.1%; in assay [3], 15.6%; in assay [4], -5.89%; in assay [5], 6.79%; in assay [6], 7.85%. The inhibition is 18.8% in [7]; 23.7% in [8]; -2.24% in [9]; 0.09% in assay [10]; 0.39% in assay [11]; 25.6% in assay [12].
